Test results taken from patent US20130289083A1, “IDO Inhibitors” (priority 2007, published 2013).
pEC50, pIC50: −log10 of the molar value. Read-outs that look alike come from different tables or passages of the source.

Columns and labels:
[1] = molecular target: human IDO (Homo sapiens, UniProt P14902); test: Cell based IDO/kynurenine assay in IDO-293-T-Rex cells; details: kynurenine production, 293T cells expressing human IDO
In short: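 293-T-REx cells stably carrying doxycycline-inducible human or murine IDO were incubated with inhibitors in induction medium for 16 h at 37° C. Medium was TCA-treated at 60° C and reacted with p-dimethylaminobenzaldehyde. Kynurenine was quantified by absorbance at 480 nm.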

[2] = tested on: IDO-293-T-Rex cells
Procedure: To measure the toxicity of each compound after 16 h incubation with cells, cell viability is measured via a WST-1 assay (Roche) according to instructions from the manufacturer. Briefly, after the incubation with each compound, medium is aspirated and replaced with […] of WST-1 reagent, and incubated 30 min at 37° C. Absorbance at 540 nm is correlated with the number of viable cells. Determination of IC50 (Kynurenine assay) or LD50 (WST-1 assay) is performed via non-linear regression analysis using GraphPad Prism software.
Viability was measure by the WST assay as described in one of the examples.

[3] = molecular target: T1, murine IDO (Mus musculus, UniProt P28776); test: Cell based IDO/kynurenine assay in 293-T-Rex cells expressing murine IDO
T1 construct: expressed in transfected cells; host or cells: 293-T-REx cells (Invitrogen), doxycycline-inducible CMV-tet promoter
T1 sequence (P28776 whole entry): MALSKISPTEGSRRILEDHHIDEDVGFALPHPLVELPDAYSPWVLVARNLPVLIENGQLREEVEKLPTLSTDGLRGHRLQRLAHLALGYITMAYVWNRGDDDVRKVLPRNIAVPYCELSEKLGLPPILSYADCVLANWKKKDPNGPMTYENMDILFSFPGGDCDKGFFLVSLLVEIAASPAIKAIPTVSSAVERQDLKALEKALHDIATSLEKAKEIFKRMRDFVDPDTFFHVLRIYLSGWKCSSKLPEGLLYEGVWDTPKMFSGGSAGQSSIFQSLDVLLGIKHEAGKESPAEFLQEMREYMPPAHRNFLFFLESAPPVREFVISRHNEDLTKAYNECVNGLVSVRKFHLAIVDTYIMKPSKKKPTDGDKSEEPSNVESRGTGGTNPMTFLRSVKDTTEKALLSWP

[4] = tested on: 293-T-Rex cells expressing murine IDO; test: Toxicity / cell viability (LD50) in the murine IDO cell based assay
[5] = molecular target: purified human IDO protein (Homo sapiens, UniProt P14902); test: Enzymatic IDO assay (kynurenine production, absorbance 480 nm); details: recombinant human IDO, enzymatic activity
Sequence of purified human IDO protein (P14902 whole entry P110S/E119G): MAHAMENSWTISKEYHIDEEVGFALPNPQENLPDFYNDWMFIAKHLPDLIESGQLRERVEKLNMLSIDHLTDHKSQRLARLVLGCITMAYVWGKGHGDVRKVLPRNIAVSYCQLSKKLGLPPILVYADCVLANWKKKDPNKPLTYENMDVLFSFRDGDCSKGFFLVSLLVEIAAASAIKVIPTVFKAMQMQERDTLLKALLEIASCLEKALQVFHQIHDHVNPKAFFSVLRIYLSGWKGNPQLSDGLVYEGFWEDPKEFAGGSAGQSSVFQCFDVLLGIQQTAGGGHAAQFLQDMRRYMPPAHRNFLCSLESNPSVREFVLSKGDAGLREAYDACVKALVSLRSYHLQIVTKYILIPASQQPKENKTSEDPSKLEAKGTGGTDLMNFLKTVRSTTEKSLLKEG

[6] = Table 15, 50% cell viability loss, WST assay, human IDO cell based assay
[7] = Table 15, cells expressing murine IDO, read-out: mIDO EC50
[8] = Table 15, cell viability loss, murine IDO cell based assay
[9] = Table 16, 50% cell viability loss, WST assay, human IDO cell based assay
[10] = Table 16, cell viability loss, murine IDO cell based assay
[11] = Table 16, cells expressing murine IDO, read-out: mIDO EC50

Sequence of human IDO (P14902 whole entry): as the sequence (P14902 whole entry P110S/E119G) above, with S110P, G119E counted along it

SMILES | pEC50 ([1]; Table 15, read-out: hIDO EC50) | pEC50 [3, 7] | pIC50 ([5]; hIDO IC50, Table 15) | other results
NOCc1ccc2ccccc2c1 [compound 1736, O-(naphthalen-2-ylmethyl)hydroxylamine] | > 5.00 | > 5.00 | > 5.00 | hIDO LD50 [2, 6]: D (D>1000 μM); mIDO LD50 [4, 8]: D (D>1000 μM)
NOCc1cc([N+](=O)[O-])cc([N+](=O)[O-])c1 [compound 1657, O-(3,5-dinitrobenzyl)hydroxylamine] |  |  |  | pEC50 ([1]; hIDO EC50, Table 16): > 5.00; hIDO LD50 [2, 9]: D (D>1000 μM); pEC50 ([3]; mIDO EC50, Table 16, cells expressing murine IDO): > 5.00; mIDO LD50 [4, 10]: D (D>1000 μM); pIC50 ([5]; hIDO IC50, Table 16): > 5.00
NOCc1cccc(Cl)c1 [compound 1672, O-(3-chlorobenzyl)hydroxylamine] |  |  |  | pEC50 ([1]; Table 16, read-out: hIDO EC50): > 5.00; hIDO LD50 [2]: D (key: A: <10 μM; B: 10-100 μM; C: 100-1000 μM; D>1000 μM); pEC50 [3, 11]: > 5.00; mIDO LD50 [4]: D (key: A: <10 μM; B: 10-100 μM; C: 100-1000 μM; D>1000 μM); pIC50 ([5]; hIDO IC50, Table 16): > 5.00
NOCc1cc(F)cc(F)c1 [compound 1770, O-(3,5-difluorobenzyl)hydroxylamine] | > 5.00 |  | > 5.00 | hIDO LD50 [2]: D (key: A: <10 μM; B: 10-100 μM; C: 100-1000 μM; D>1000 μM); pEC50 ([3]; Table 15, printed as a number instead of a range class, read-out: mIDO EC50): 5.64; mIDO LD50 [4]: D (key: A: <10 μM; B: 10-100 μM; C: 100-1000 μM; D>1000 μM)
NOCc1cccc(F)c1 [compound 762, O-(3-fluorobenzyl)hydroxylamine] |  |  |  | pEC50 ([1]; Table 16, read-out: hIDO EC50): > 5.00; hIDO LD50 [2, 9]: D (D>1000 μM); pEC50 [3, 11]: > 5.00; mIDO LD50 [4, 10]: D (D>1000 μM); pIC50 ([5]; hIDO IC50, Table 16): > 5.00
NOCc1ccc(I)cc1 [compound 1818, O-(4-iodobenzyl)hydroxylamine] |  |  |  | pEC50 ([1]; Table 16, read-out: hIDO EC50): > 5.00; hIDO LD50 [2]: D (key: A: <10 μM; B: 10-100 μM; C: 100-1000 μM; D>1000 μM); pEC50 [3, 11]: 4.00 to 5.00; mIDO LD50 [4]: D (key: A: <10 μM; B: 10-100 μM; C: 100-1000 μM; D>1000 μM); pIC50 ([5]; hIDO IC50, Table 16): > 5.00
N#Cc1ccc(CON)cc1 [compound 1896, 4-(aminooxymethyl)benzonitrile] | > 5.00 | 4.00 to 5.00 | > 5.00 | hIDO LD50 [2, 6]: D (D>1000 μM); mIDO LD50 [4, 8]: D (D>1000 μM)
NOCc1ccccc1I [compound 1817, O-(2-iodobenzyl)hydroxylamine] |  |  |  | pEC50 ([1]; Table 16, read-out: hIDO EC50): > 5.00; hIDO LD50 [2]: D (key: A: <10 μM; B: 10-100 μM; C: 100-1000 μM; D>1000 μM); pEC50 [3, 11]: 4.00 to 5.00; mIDO LD50 [4]: D (key: A: <10 μM; B: 10-100 μM; C: 100-1000 μM; D>1000 μM); pIC50 ([5]; hIDO IC50, Table 16): > 5.00
NOCc1cc(Cl)ccc1-c1ccc(C(F)(F)F)cc1 [compound 1917, O-((4-chloro-4′-(trifluoromethyl)biphenyl-2-yl)methyl)hydroxylamine] | > 5.00 | 4.00 to 5.00 | > 5.00 | 
NOCc1cc(Cl)ccc1-c1cccc(Cl)c1 [compound 1918, O-((3′,4-dichlorobiphenyl-2-yl)methyl)hydroxylamine] | > 5.00 | 4.00 to 5.00 | > 5.00 | 
NOCc1c(F)cccc1Cl [compound 1674, O-(2-chloro-6-fluorobenzyl)hydroxylamine] | > 5.00 | 4.00 to 5.00 | 4.00 to 5.00 | 
NOC(CCc1ccccc1)c1ccccc1 (stereo not shown) [compound 1924, O-(1,3-diphenylpropyl)hydroxylamine] | > 5.00 | 4.00 to 5.00 | > 5.00 | 
NOCc1cc(Cl)ccc1-c1ccccc1 [compound 1916, O-((4-chlorobiphenyl-2-yl)methyl)hydroxylamine] | > 5.00 | 4.00 to 5.00 | > 5.00 | 
NOCc1cc(Cl)cc(-c2ccc(Cl)cc2)c1 [compound 1893, O-((4′,5-dichlorobiphenyl-3-yl)methyl)hydroxylamine] | > 5.00 | 4.00 to 5.00 | > 5.00 | 
NOCc1ccc2c(c1)OCCO2 [compound 1750, O-((2,3-dihydrobenzo[b][1,4]dioxin-6-yl)methyl)hydroxylamine] | > 5.00 | 4.00 to 5.00 | 4.00 to 5.00 | 
NOCc1cccc(NCc2ccccc2)c1 [compound 1872, 3-(aminooxymethyl)-N-benzylaniline] | > 5.00 | > 5.00 | > 5.00 | 
Cc1nc(-c2ccccc2)ncc1CON [compound 1740, O-((4-methyl-2-phenylpyrimidin-5-yl)methyl)hydroxylamine] | > 5.00 | > 5.00 | 4.00 to 5.00 | 
NOCc1c[nH]c2ccccc12 [compound 1742, O-((1H-indol-3-yl)methyl)hydroxylamine] | > 5.00 | > 5.00 | 4.00 to 5.00 | hIDO LD50 [2, 6]: D (D>1000 μM); mIDO LD50 [4, 8]: D (D>1000 μM)
CNC(=O)CCC(ON)c1ccccc1 (stereo not shown) [compound 1898, 4-(aminooxy)-N-methyl-4-phenylbutanamide] | > 5.00 | 4.00 to 5.00 | 4.00 to 5.00 | 
NOCc1cc(Cl)cc(Cl)c1 [compound 1769, O-(3,5-dichlorobenzyl)hydroxylamine] | > 5.00 | > 5.00 | > 5.00 | hIDO LD50 [2]: D (key: A: <10 μM; B: 10-100 μM; C: 100-1000 μM; D>1000 μM); mIDO LD50 [4]: D (key: A: <10 μM; B: 10-100 μM; C: 100-1000 μM; D>1000 μM)
NOCc1cccnc1 [compound 1738, O-(pyridin-3-ylmethyl)hydroxylamine] | > 5.00 | 4.00 to 5.00 | 4.00 to 5.00 | hIDO LD50 [2, 6]: D (D>1000 μM); mIDO LD50 [4, 8]: D (D>1000 μM)
NOC(c1ccccc1)C1CCCCC1 (stereo not shown) [compound 1920, O-(cyclohexyl(phenyl)methyl)hydroxylamine] | > 5.00 | 4.00 to 5.00 | > 5.00 | 
NOCc1cccc(-c2ccccc2)c1 [compound 1825, O-(biphenyl-3-ylmethyl)hydroxylamine] | > 5.00 | 4.00 to 5.00 | > 5.00 | 
NOCc1cccc2ccccc12 [compound 1767, O-(naphthalen-1-ylmethyl)hydroxylamine] |  |  |  | pEC50 ([1]; Table 16, read-out: hIDO EC50): > 5.00; pEC50 [3, 11]: 4.00 to 5.00; pIC50 ([5]; hIDO IC50, Table 16): > 5.00
NOCc1cc(Cl)ccc1-c1ccc(Cl)c(Cl)c1 [compound 1919, O-((3′,4,4′-trichlorobiphenyl-2-yl)methyl)hydroxylamine] | > 5.00 | 4.00 to 5.00 | > 5.00 | 
NOCc1ccccc1-c1ccncc1 [compound 1889, O-(2-(pyridin-4-yl)benzyl)hydroxylamine] | > 5.00 | 3.00 to 4.00 | 4.00 to 5.00 | 
NOCc1ccc([N+](=O)[O-])cc1 [compound 1014, O-(4-nitrobenzyl)hydroxylamine] |  |  |  | pEC50 ([1]; Table 16, read-out: hIDO EC50): > 5.00; pEC50 [3, 11]: 4.00 to 5.00; pIC50 ([5]; hIDO IC50, Table 16): 4.00 to 5.00
COC(=O)C(ON)c1ccccc1 (stereo not shown) [compound 1886, methyl 2-(aminooxy)-2-phenylacetate] | > 5.00 | > 5.00 | > 5.00 | 
